Where two headings read alike, the source gives them in different places.
Assays:
[1] = Oral pharmacokinetics of CSE constituents in rat plasma (UFLC-MS/MS); format: in vivo, Sprague–Dawley rats; conditions: single oral CSE 40 mg/kg, n = 6, mean ± SEM
Procedure: The PK parameters were calculated by non-compartmental analysis. The PK parameters, such as maximum plasma concentration (Cmax) and the time to reach the maximum plasma concentration (Tmax), were derived directly from the experimental data. The trapezoidal equation calculated the areas under the plasma concentration-time curves from 0 to the time of the last quantifiable concentration (AUC0−t). The AUC was extrapolated to infinity AUC0-∞ using Ct/Kel, where Ct is the last measured MET concentration. Kel is the elimination rate constant determined from the terminal slope of the log concentration-time plot. The Kel was obtained from the linear regression curve slope by fitting the terminal concentrations’ natural logarithms versus time. The terminal elimination half-life (t1/2) was calculated by 0.693/Kel. The clearance (CL) was calculated as the quotient of the dose (D) and AUC0−∞. All values were expressed as mean ± SEM.
Male Sprague–Dawley rats (250–300 g) were purchased from Crystal Biological Solution, Pune, Maharashtra, India. The animal studies were sanctioned by the Animal Ethics Committee of Crystal Biological Solution, Pune. It was carried out following the Animal Ethics Procedures and Guidelines of Control and Supervision of Experiments on Animals (CPCSEA) committee requirements. Animals were housed 3–4 per cage in rooms with constant temperature (25 ± 2 °C), humidity (50 ± 20%), and 12 h dark-light cycle. All animals in the oral group fasted overnight before the dosing, and food was provided 8 h post-dose, and water was ad libitum. The investigational CSE was fed orally to an individual rat as per its body weight.
The UFLC-MS/MS analysis was performed on a Shimadzu UFLC system (Kyoto, Japan) consisting of a DGU-20A5R degasser, LC-30AD pump, SIL-30AC autosampler, CTO-20AC column oven. The chromatographic separation was carried out in a single analytical run divided into loading and eluting phases by alternating the electronic valve. At the loading phase (−1–0 min), the auto-sampler was responsible for injecting 50 µL of the sample. The LC-30AD pump was responsible for delivering water containing 0.1% formic acid to the pre-column (Phenomenex Security Guard ULTRA with C8 Cartridge) at 0.8 mL/min to remove protein and retain analytes. At the eluting phase (0–12 min), the retained components were flushed from the pre-column into the analytical column (Dr. Maisch GmbH Reprosil Gold XBD C8, 50 mm × 4.6 mm, i.d., 1.8 µm) eluting as per time programmed gradient. The flow rate of the mobile phase was 0.8 mL/min. The mobile phase consists of a mixture of water containing 0.1% formic acid (%v/v) (A) and 100% acetonitrile (B). The gradient elution program was carried out for chromatographic separation: 0.01–1.91 min, 20% B; 1.91–5.91 min, 2090% B; 5.91–6.91 min, 90–80% B; 6.91–8.24 min, 80–20% B; and 8.24–12 min, 20% B. The column oven temperature was set at 30 °C. The MS/MS analysis was carried out on an LCMS-8045 triple-quadrupole mass spectrometer (Shimadzu, Kyoto, Japan) equipped with positive and negative electrospray ionization (ESI) interfaces using the MRM mode. The compound and source dependent parameters were defined as follows: nitrogen was used as nebulizing and drying gas; argon was used as the collision gas. Quadruple voltage was set at Q1 RF gain: 4998 Q1 RF offset 4990 and Q1 post-rod bias: −5.0 V CID CELL exit lens: −4.0 V, interface: ESI, interface temperature: 350 °C, desolvation line (DL) temperature: 250 °C, nebulizing gas flow: 2.50 L/min, heating gas flow: 10.00 L/min heat block: 300 °C; drying gas flow: 10.00 L/min.
An aliquot of 45 µL of rat plasma was spiked with each 5 µL of IS1 and IS2, and 200 µL of methanol was added, vortexed for 1–2 min, then centrifuged for 10 min at 2000 RPM. Collect the supernatant into HPLC vials and injected it into the UFLC-MS/MS system for analysis. […]

[2] = Stability of analytes in rat plasma (autosampler, room temperature, freeze-thaw); format: in vitro ADME; conditions: for analyte stability in plasma: LQC and HQC, processed plasma samples, stable under restricted storage conditions; for Room Temperature Stability (%, mean ± SD) / Autosampler Stability (%, mean ± SD) / Freeze-Thaw Stability (%, mean ± SD): rat plasma, n = 6; for Room Temperature Stability (%, mean ± SD): ambient temperature 4 h; for Autosampler Stability (%, mean ± SD): autosampler 8 °C for 24 h; for Freeze-Thaw Stability (%, mean ± SD): three freeze-thaw cycles at −20 ± 4 °C
Procedure: The stability was performed at different sets of working and storage conditions. […] The stability conditions of the method studied were at ambient temperature for 4 h (room-temperature stability), in the autosampler at 8 °C conditions for 24 h (autosampler stability), and with three freeze-thaw cycles at −20 ± 4 °C condition (freeze-thaw stability). The samples were prudent to be stable if the measured concentration was within ±15% of the nominal concentration.

[3] = system: mice; set-up: method as in PMID 28471166, PMID 31459089, PMID 33404280; conditions: by inducing autophagy mediated by AMPK pathway activation; cited from earlier work
[4] = male, Sprague-Dawley, rat, plasma, po, 40 mg/kg
[5] = male, Sprague-Dawley, rat, plasma, po, 40 mg/kg, read-out: Tmax

| half-life [1, 4] | Tmax [1, 5] | AUC(0-inf) ([1]; male, Sprague-Dawley) | AUC(0-t) ([1]; male, Sprague-Dawley) | Cmax ([1]; male, Sprague-Dawley) | CL [1] | Vd [1] | Tmax [1] | analyte stability in plasma [2] | Room Temperature Stability (%, mean ± SD) ([2]; nominal 30.00 ng/mL (LQC)) | Autosampler Stability (%, mean ± SD) ([2]; nominal 30.00 ng/mL (LQC)) | Freeze-Thaw Stability (%, mean ± SD) ([2]; nominal 30.00 ng/mL (LQC)) | Room Temperature Stability (%, mean ± SD) ([2]; nominal 2400.00 ng/mL (HQC)) | Autosampler Stability (%, mean ± SD) ([2]; nominal 2400.00 ng/mL (HQC)) | Freeze-Thaw Stability (%, mean ± SD) ([2]; nominal 2400.00 ng/mL (HQC)) | Structure (SMILES) | memory function [3] |
| --- | --- | --- | --- | --- | --- | --- | --- | --- | --- | --- | --- | --- | --- | --- | --- | --- |
| 1.57 ± 1.57 h | 3.25 ± 1.05 h | 407 ± 187 ng·h/mL | 396 ± 113 ng·h/mL | 86.1 ± 15.7 ng/mL | 326.37 ± 445.89 mL/h/kg | 4.29 ± 1.94 L/kg | – | – | – | – | – | – | – | – | CC(=C/C=C/C=C(C)/C=C/C=C(\C)C(=O)OC1OC(COC2OC(CO)C(O)C(O)C2O)C(O)C(O)C1O)/C=C/C=C(\C)C(=O)OC1OC(COC2OC(CO)C(O)C(O)C2O)C(O)C(O)C1O (stereo not drawn) [C4C, cis-4-GG-crocin] | – |
| 0.793 ± 0.078 h | 0.67 h | 3820 ± 257 ng·h/mL | 3690 ± 274 ng·h/mL | 2720 ± 231 ng/mL | 1935.88 ± 123.45 mL/h/kg | 2.258 ± 0.3168 L/kg | 0.792 ± 0.10 h | stable | 30.40 ± 0.92 ng/mL | 29.52 ± 1.26 ng/mL | 29.98 ± 1.66 ng/mL | 2406.19 ± 94.01 ng/mL | 2463.69 ± 113.42 ng/mL | 2498.53 ± 111.53 ng/mL | CC1=C(C=O)C(C)(C)C[C@H](O[C@@H]2O[C@H](CO)[C@@H](O)[C@H](O)[C@H]2O)C1 [PIC, picrocrocin] | – |
| – | – | – | – | – | – | – | – | stable | – | – | – | – | – | – | CC1=C(C=O)C(C)(C)CC=C1 [SAF, safranal] | – |
| 4.6 ± 2.74 h | 3.5 ± 1.09 h | 55.5 ± 31.2 ng·h/mL | 20.4 ± 9.64 ng·h/mL | 7.59 ± 4.71 ng/mL | 114,958.33 ± 71,000.46 mL/h/kg | 325.573 ± 13.099 L/kg | – | – | – | – | – | – | – | – | CC(/C=C/C=C(\C)C(=O)OC1OC(CO)C(O)C(O)C1O)=C\C=C\C=C(C)\C=C\C=C(/C)C(=O)OC1OC(COC2OC(CO)C(O)C(O)C2O)C(O)C(O)C1O (stereo not drawn) [T3C, trans-3-Gg-crocin] | – |
| > 11 h | 6.83 ± 1.68 h | 30700 ng·h/mL | 23600 ng·h/mL | 2080 ± 374 ng/mL | – | – | 6.84 ± 1.69 h | stable | – | – | – | – | – | – | CC(/C=C/C=C(\C)C(=O)O)=C\C=C\C=C(C)\C=C\C=C(/C)C(=O)O [TCT, trans crocetin] | improved memory function |
| 5.75 ± 0.73 h | 4.34 ± 0.51 h | 1680 ± 238 ng·h/mL | 1530 ± 197 ng·h/mL | 160 ± 15.2 ng/mL | 234.77 ± 31.12 mL/h/kg | 2.006 ± 0.457 L/kg | – | – | – | – | – | – | – | – | CC(/C=C/C=C(\C)C(=O)OC1OC(CO)C(O)C(O)C1O)=C\C=C\C=C(C)\C=C\C=C(/C)C(=O)OC1OC(CO)C(O)C(O)C1O (stereo not drawn) [T2C, trans-2-gg-crocin] | – |
| 3.36 ± 1 h | 3.5 ± 0.57 h | 370 ± 75.6 ng·h/mL | 277 ± 67.7 ng·h/mL | 49.3 ± 11.2 ng/mL | 19,568.35 ± 4835.41 mL/h/kg | 69.250 ± 16.150 L/kg | – | – | – | – | – | – | – | – | CC(/C=C/C=C(\C)C(=O)OC1OC(COC2OC(CO)C(O)C(O)C2O)C(O)C(O)C1O)=C\C=C\C=C(C)\C=C\C=C(/C)C(=O)OC1OC(COC2OC(CO)C(O)C(O)C2O)C(O)C(O)C1O (stereo not drawn) [T4C, trans-4-GG-crocin] | – |

Source: article PMC8005090, “Bioanalytical Method Development and Validation Study of Neuroprotective Extract of Kashmiri Saffron Using Ultra-Fast Liquid Chromatography-Tandem Mass Spectrometry (UFLC-MS/MS): In Vivo Pharmacokinetics of Apocarotenoids and Carotenoids” (Molecules, 2021)
